Measured values: PMC4305287, “Two Novel α7 Nicotinic Acetylcholine Receptor Ligands: In Vitro Properties and Their Efficacy in Collagen-Induced Arthritis in Mice” (PLoS ONE, 2015)

Experiments:
[1] = tested on: collagen-induced arthritis; design: method as in PMID 19116908; settings: cited from earlier work
[2] = tested on: T1, human α7 nAChR primed with PNU-120596; assay: electrophysiology of oocytes primed with PNU-120596; assay type: biochemical
T1 construct: expressed in transfected cells; host or cells: Xenopus laevis oocytes injected with cRNA; clones from Dr. Jon Lindstrom (α7) and Dr. Millet Treinin (RIC-3)
Protocol: Each oocyte received two initial control applications of 300 μM ACh, followed by the experimental drug application, and subsequent control application of 300 μM ACh, unless otherwise indicated. Responses to experimental drug applications were determined relative to the preceding ACh control responses in order to normalize the data, compensating for the varying levels of channel expression among the oocytes. Responses for α7 nAChR were calculated as net charge, since peak currents inaccurately report the agonist concentration dependence of α7 nAChR-mediated responses. […] Imax, n, and the EC50 were all unconstrained for the fitting procedures except in the case of the ACh concentration-response curves.

memory retention = tested on: memory retention; design: method as in PMID 19845675; settings: cited from earlier work
microglia = tested on: microglia; design: method as in PMID 22884467; settings: cited from earlier work

O=C1NCC2(CN3CCC2CC3)O1 (centres unmarked) [AR-R17779]
effect on arthritis activity in CIA [1]: ameliorates arthritis activity

CCN1C[C@]2(COC(=O)c3ccccc3N3C(=O)C[C@H](C)C3=O)CC[C@H](OC)[C@@]34[C@@H]5C[C@H]6[C@H](OC)[C@@H]5[C@](O)(C[C@@H]6OC)[C@@](O)([C@@H](OC)[C@H]23)[C@@H]14 [MLA, methyllycaconitine]
ion channel response of PNU-120596 primed cells ([2]; after 60 s priming with 300 μM PNU-120596, PMP-311 1 μM, PMP-072 10 μM, MLA 10 μM): fail to activate the primed cells

O=C(c1ccc(-c2cccc(C(F)(F)F)c2)o1)N1CCN2CCC1CC2 [NS-6740]
memory retention in a cognitive mouse model (memory retention): unable to improve memory retention | LPS-induced TNF release in microglia (microglia): reduce LPS-induced TNF release

COc1cc(OC)c(NC(=O)Nc2cc(C)on2)cc1Cl [PNU-120596]
ion channel current during PNU-120596 application alone ([2]; 300 μM for 60 s): No ion channel current was stimulated
